Measured values from US5981497A, “Utilization of sophorolipids as therapeutically active substances or cosmetic products, in particular for the treatment of the skin” (Institut Francais du Petrole, priority 1995, dated 1999).

Key:
[1] = tested on: macrophages (Interleukin-1 release); experiment: IL-1 released by macrophages (Elisa sandwich test on culture supernatant); type: cell-based; conditions: 25 μg/ml
Text: It is known, however, that several factors such as cytokines and growth factors play important roles in the process of wound healing. These factors include the epidermal growth factor (EGF), the fibroblastic growth factor (FGF), the platelet-derived growth factor (PDGF), and the beta transforming growth factor (beta-TGF). In addition to these factors, cytokines such as interleukin-l (IL-1), the tumor necrosis factor (TNF), and interleukin-6 (IL-6) also play important roles in the process of wound healing. These factors act by different methods, in combination with other materials, to induce proliferation of dermal and epidermal elements such as fibroblasts. […] Actually, IL-1 affects the differentiation, growth, and activity of many cellular types in the organism. Within the immune system, IL-1 acts as a second signal that is necessary to activate the IL-2 circuit by the activated T lymphocytes. It also potentiates the action of other cytokines. It contributes to the differentiation of B lymphocytes and to their production of immunoglobulins. It modifies vascular permeability by the release of mediators by the endothelial cells and induces the appearance at their surface of a factor that has a procoagulating activity. Owing to its proliferative effect on the fibroblasts, it intervenes in the repair phase.
To show the effect of activating macrophages by sophorolipids, an Elisa sandwich test was carried out on the supernatant of a culture medium that contained macrophages. […] A negative test was also used.

[2] = tested on: keratinocyte culture (detachment of corneocytes); experiment: Desquamating test, detachment of corneocytes in vitro; type: cell-based
Text: Variation coefficient CV is obtained as follows: [formula]
Actually, the therapeutic applications incidentally involve cosmetic applications.

in vitro = conditions: keratinocyte culture
Procedure: A keratinocyte culture that was placed under conditions that promote the differentiation of cells was selected as a cellular model for the study. The actions of sophorolipids in acid form A, sophorolipids in lactone form B, and lactic acid on the detachment of corneocytes of the selected cellular model were tested in vitro in parallel. In each experiment, the mean difference T60-T0 (corneocytes/ml), as well as the proportion of detached corneocytes, expressed in percentage relative to the negative test (%/TN), were determined.
Cellular viability, measured with the Neutral Red test, is expressed relative to the negative test (%).

| Compound | Concentrations IL-1 released by macrophages [1] [pg/mL] | T60-T0 mean difference ([2]; 10^-3M, p less than 0.001) [corneocytes/ml] | activity at 1000 µM ([2]; Keratinocyte, 10^-3M, read-out: %/TN, proportion of detached corneocytes relative to the negative test) [%] | EC (2-fold corneocyte release) ([2]; Keratinocyte, read-out: T200 (concentration which causes a release of corneocytes twice that observed with the negative test)) [µM] | viability at 1000 µM (in vitro) [%] |
| --- | --- | --- | --- | --- | --- |
| Lipopolysaccharides [reference compound] | 421.61 | – | – | – | – |
| CC(O)C(=O)O (centres unmarked) [Lactic acid, lactic acid, reference compound] | – | 2500 | 214 | ~1000 | 99.5 |
